Measurements published in patent publication US9102712B2, “Dendrimeric peptides, pharmaceutical compositions and methods of using the same” (New York University, priority 2010, dated 2015).
≈ marks a conversion by molar mass, not a printed value. Square brackets hold non-standard residues; d marks the D form. Side chains are listed from the residue outwards. Peptide text beside a SMILES is read from it. * marks the point of attachment. ξ: configuration not given here. Lys(α,ε-(ArgTrp)2) = N=C(N)NCCC[C@H](N)C(=O)N[C@@H](Cc1c[nH]c2ccccc12)C(=O)NCCCC[C@H](NC(=O)[C@H](Cc1c[nH]c2ccccc12)NC(=O)[C@@H](N)CCCNC(=N)N)C(=O)*; X1 = CC(C)(C)c1cc(C(C)(C)C)c2[nH]c(C(C)(C)C)c(CC(NC(=O)[C@@H](N)CCCNC(=N)N)C(=O)*)c2c1; Trp(2,5,7-tBu3) = CC(C)(C)c1cc(C(C)(C)C)c2[nH]c(C(C)(C)C)c(C[C@H](N)C(=O)O)c2c1; ξTrp(2,5,7-tBu3) = CC(C)(C)c1cc(C(C)(C)C)c2[nH]c(C(C)(C)C)c(CC(N)C(=O)O)c2c1; βAla = NCCC(=O)O

Tests used:
[1] = tested on: fresh sheep RBC; assay type: cell-based; conditions: red cells of sheep, 1 h
Description: Hemolytic activity of dendrimeric compounds were assessed on fresh sheep RBC (Fitzgerald, Inc., MA). Dendrimer concentrations corresponding to 50% hemolysis were used as hemolytic dose (HD50) determined from dose-response curve. The fresh sheep RBC was washed with PBS buffer (thrice) and aliquots of cell suspension were mixed in eppendorf tubes with varying volumes of stocks and buffer for a total volume of 400 μL. These tubes were incubated at 37° C. for 1 hr, and then spun down at 3,000 rpm for 5 mins. The resulting supernatant was trasferred to a 96-well plate and the absorbances at 540 nm were measured in an Absorbance Microplate Reader BIO-TEK ELX800. Zero hemolysis and 100% hemolysis controls were obtained by incubating the cells with buffer and 1% Triton X-100, respectively. Hemolytic index (HI) was defined as HI=HD50/IC50 (Table 1 and 3).

[2] = tested on: E. coli (D31); experiment: Antibacterial broth microdilution, E. coli; assay type: cell-based; conditions: for E. Coli HI (hemolytic index): HI=HD50/IC50, E. coli; for IC50 E. Coli D31 / E. Coli IC50: 50% inhibition of growth, MH broth, 18 hrs at 37° C.; for IC50 E. Coli D31: Table 3; for E. Coli IC50: Table 1
Description: (§1) The antibacterial activity of each dendrimer peptide was tested by following standard broth microdilution protocols recommended by the National Committee for Clinical Laboratory Standard (NCCLS 2004). Antibacterial testing was carried out on gram-negative bacteria E. coli (D31) and gram-positive bacteria S. aureus in liquid media Mueller Hinton (MH) Brooth according to literature procedures. Dendrimers were dissolved in PBS buffer (high salt, 150 mM NaCl; low salt, 75 mM NaCl), pH 7.4 to make series of stocks of 2-fold dilution. Cultures were grown overnight on Mueller Hinton (MH) agar plates, and 3 to 5 uniform colonies of each organism were transferred with an inoculating loop to test tubes containing MH broth, and incubated at 37° C. overnight, then diluted until the turbidity matched that of the 0.5 McFarland standard (approximately 1.5×10^8 cells/mL). The resulting solutions were further diluted to give approximately 2×10^4-2×10^5 CFU/mL. 100 μL of the bacterial inoculums were incubated in 96-well plates with varying volumes of stock solution and PBS buffer to bring the total volume to 200 μL. Solutions containing the same volumes of PBS buffer and MH Broth, with and without bacteria were used as controls. After these plates were incubated with shaking for 18 hrs at 37° C. to ensure the cultures had reached log phase growth, the absorbance readings were recorded at a wavelength of 600 nm using a Absorbance Microplate Reader BIO-TEK ELX800. The 18-hour absorbance data were used to calculate the percent inhibition for each test condition. All assays were carried out in triplicate. The experimental data were fitted to sigmoidal dose-response curves using GraphPad Prism (GraphPad Software Inc., San Diego, Calif., USA).

[3] = tested on: S. aureus; assay type: cell-based; conditions: for S. Aureus IC50: 18 h; for S. Aureus HI (hemolytic index): HI=HD50/IC50, S. aureus
Description: as §1

[4] = tested on: B. Subtilis; assay type: cell-based; conditions: 18 h
[5] = tested on: MRSA; assay type: cell-based, Methicillin-resistant Staphylococcus aureus; conditions: 18 h
Description: as §1

Structure (SMILES)	Hemolysis HD50 [1] [µg/mL]	E. Coli HI (hemolytic index) [2]	S. Aureus IC50 [3] [µg/mL]	S. Aureus HI (hemolytic index) [3]	IC50 B. Subtilis [4] [µg/mL]	HD50 Hemolysis [1] [µg/mL]	IC50 E. Coli D31 [2] [µg/mL]	IC50 MRSA [5] [µg/mL]	E. Coli IC50 [2] [µg/mL]
N=C(N)NCCC[C@H](N)C(=O)N[C@@H](Cc1c[nH]c2ccccc12)C(=O)NCCCC[C@H](NC(=O)[C@H](Cc1c[nH]c2ccccc12)NC(=O)[C@@H](N)CCCNC(=N)N)C(=O)NCCCC[C@H](NC(=O)[C@H](CCCCNC(=O)[C@H](Cc1c[nH]c2ccccc12)NC(=O)[C@@H](N)CCCNC(=N)N)NC(=O)[C@H](Cc1c[nH]c2ccccc12)NC(=O)[C@@H](N)CCCNC(=N)N)C(=O)NCCC(N)=O [(RW)4D, reference compound] (H-RWK([Trp-Arg])K(Lys(α,ε-(ArgTrp)2))[βAla]-NH2; N-terminus and C-terminus assumed)	1400	310	16	88					
N=C(N)NCCC[C@H](NC(=O)[C@H](Cc1c[nH]c2ccccc12)NC(=O)[C@@H](N)CCCNC(=N)N)C(=O)NCCCC[C@H](NC(=O)[C@H](CCCNC(=N)N)NC(=O)[C@H](Cc1c[nH]c2ccccc12)NC(=O)[C@@H](N)CCCNC(=N)N)C(=O)NCCC(N)=O [Dendrimer 2D-04, reference compound] (H-RWRK([Arg-Trp-Arg])[βAla]-NH2)					6.1 (≈ 5.03 µM)	3428	6.8 (≈ 5.6 µM)	56.6 (≈ 46.6 µM)	
CC(C)(C)c1cc(C(C)(C)C)c2[nH]c(C(C)(C)C)c(CC(NC(=O)[C@@H](N)CCCNC(=N)N)C(=O)N[C@@H](CCCNC(=N)N)C(=O)NCCCC[C@H](NC(=O)[C@H](CCCNC(=N)N)NC(=O)C(Cc3c(C(C)(C)C)[nH]c4c(C(C)(C)C)cc(C(C)(C)C)cc34)NC(=O)[C@@H](N)CCCNC(=N)N)C(=O)NCCC(N)=O)c2c1 (stereo partly drawn) [Dendrimer 2D-24]					0.8 (≈ 0.516 µM)	48	0.5 (≈ 0.323 µM)	0.2 (≈ 0.129 µM)	
N=C(N)NCCC[C@H](NC(=O)[C@@H](N)Cc1c[nH]c2ccccc12)C(=O)NCCCC[C@H](NC(=O)[C@H](CCCCNC(=O)[C@H](CCCNC(=N)N)NC(=O)[C@@H](N)Cc1c[nH]c2ccccc12)NC(=O)[C@H](CCCNC(=N)N)NC(=O)[C@@H](N)Cc1c[nH]c2ccccc12)C(=O)NCCC(N)=O [Dendrimer 3D-03, reference compound] (H-WRK([Arg-Trp])K([Arg-Trp])[βAla]-NH2)					14.3 (≈ 10.4 µM)	3197	12.1 (≈ 8.82 µM)	>100	
N=C(N)NCCC[C@H](NC(=O)[C@H](Cc1c[nH]c2ccccc12)NC(=O)[C@@H](N)CCCNC(=N)N)C(=O)NCCCC[C@H](NC(=O)[C@H](CCCCNC(=O)[C@H](CCCNC(=N)N)NC(=O)[C@H](Cc1c[nH]c2ccccc12)NC(=O)[C@@H](N)CCCNC(=N)N)NC(=O)[C@H](CCCNC(=N)N)NC(=O)[C@H](Cc1c[nH]c2ccccc12)NC(=O)[C@@H](N)CCCNC(=N)N)C(=O)NCCC(N)=O [Dendrimer 3D-06, reference compound] (H-RWRK([Arg-Trp-Arg])K([Arg-Trp-Arg])[βAla]-NH2)					1.9 (≈ 1.03 µM)	2336	1.8 (≈ 0.978 µM)	17.3 (≈ 9.4 µM)	
CC(C)(C)c1cc(C(C)(C)C)c2[nH]c(C(C)(C)C)c(C[C@H](N)C(=O)N[C@@H](CCCNC(=N)N)C(=O)NCCCC[C@H](NC(=O)[C@H](CCCCNC(=O)[C@H](CCCNC(=N)N)NC(=O)[C@@H](N)Cc3c[nH]c4ccccc34)NC(=O)[C@H](CCCNC(=N)N)NC(=O)[C@@H](N)Cc3c[nH]c4ccccc34)C(=O)NCCC(N)=O)c2c1 [Dendrimer 3D-13] (H-WRK([Arg-Trp])K([Arg-Trp(2,5,7-tBu3)])[βAla]-NH2)					1.9 (≈ 1.23 µM)	270	1.0 (≈ 0.649 µM)	1.7 (≈ 1.1 µM)	
CC(C)(C)c1cc(C(C)(C)C)c2[nH]c(C(C)(C)C)c(CC(NC(=O)[C@@H](N)CCCNC(=N)N)C(=O)N[C@@H](CCCNC(=N)N)C(=O)NCCCC[C@H](NC(=O)[C@H](CCCCNC(=O)[C@H](CCCNC(=N)N)NC(=O)[C@H](Cc3c[nH]c4ccccc34)NC(=O)[C@@H](N)CCCNC(=N)N)NC(=O)[C@H](CCCNC(=N)N)NC(=O)[C@H](Cc3c[nH]c4ccccc34)NC(=O)[C@@H](N)CCCNC(=N)N)C(=O)NCCC(N)=O)c2c1 (stereo partly drawn) [Dendrimer 3D-16] (H-RWRK([Arg-Trp-Arg])K([Arg-X1])[βAla]-NH2)					0.9 (≈ 0.448 µM)	201	0.4 (≈ 0.199 µM)	5.2 (≈ 2.59 µM)	
CC(C)(C)c1cc(C(C)(C)C)c2[nH]c(C(C)(C)C)c(C[C@H](N)C(=O)N[C@@H](CCCNC(=N)N)C(=O)NCCCC[C@H](NC(=O)[C@H](CCCNC(=N)N)NC(=O)[C@@H](N)Cc3c(C(C)(C)C)[nH]c4c(C(C)(C)C)cc(C(C)(C)C)cc34)C(=O)N[C@@H](CCCCNC(=O)[C@H](CCCNC(=N)N)NC(=O)[C@@H](N)Cc3c[nH]c4ccccc34)C(=O)NCCC(N)=O)c2c1 [Dendrimer 3D-23] (H-[Trp(2,5,7-tBu3)]RK([Arg-Trp(2,5,7-tBu3)])K([Arg-Trp])[βAla]-NH2)					2.1 (≈ 1.23 µM)	99	2.4 (≈ 1.4 µM)	0.7 (≈ 0.41 µM)	
CC(C)(C)c1cc(C(C)(C)C)c2[nH]c(C(C)(C)C)c(CC(NC(=O)[C@@H](N)CCCNC(=N)N)C(=O)N[C@@H](CCCNC(=N)N)C(=O)NCCCC[C@H](NC(=O)[C@H](CCCNC(=N)N)NC(=O)C(Cc3c(C(C)(C)C)[nH]c4c(C(C)(C)C)cc(C(C)(C)C)cc34)NC(=O)[C@@H](N)CCCNC(=N)N)C(=O)N[C@@H](CCCCNC(=O)[C@H](CCCNC(=N)N)NC(=O)[C@H](Cc3c[nH]c4ccccc34)NC(=O)[C@@H](N)CCCNC(=N)N)C(=O)NCCC(N)=O)c2c1 (stereo partly drawn) [Dendrimer 3D-26] (H-R[ξTrp(2,5,7-tBu3)]RK([Arg-X1])K([Arg-Trp-Arg])[βAla]-NH2)					1.4 (≈ 0.643 µM)	33	1.4 (≈ 0.643 µM)	0.5 (≈ 0.23 µM)	
N=C(N)NCCC[C@H](NC(=O)[C@@H](N)Cc1c[nH]c2ccccc12)C(=O)NCCCC[C@H](NC(=O)[C@H](CCCNC(=N)N)NC(=O)[C@@H](N)Cc1c[nH]c2ccccc12)C(=O)NCCCC[C@H](NC(=O)[C@H](CCCCNC(=O)[C@H](CCCNC(=N)N)NC(=O)[C@@H](N)Cc1c[nH]c2ccccc12)NC(=O)[C@H](CCCNC(=N)N)NC(=O)[C@@H](N)Cc1c[nH]c2ccccc12)C(=O)NCCC(N)=O [Dendrimer 4D-04, reference compound]					4.2 (≈ 2.28 µM)	1563	4.5 (≈ 2.44 µM)	14.6 (≈ 7.93 µM)	
N=C(N)NCCC[C@H](N)C(=O)N[C@@H](Cc1c[nH]c2ccccc12)C(=O)NCCCN(CCCCN(CCCNC(=O)[C@H](Cc1c[nH]c2ccccc12)NC(=O)[C@@H](N)CCCNC(=N)N)CCCNC(=O)[C@H](Cc1c[nH]c2ccccc12)NC(=O)[C@@H](N)CCCNC(=N)N)CCCNC(=O)[C@H](Cc1c[nH]c2ccccc12)NC(=O)[C@@H](N)CCCNC(=N)N [POPAM-(WR)4, POPAM-(WR—NH2)3]	291		0.37 ± 0.13						0.57 ± 0.12
NCCCC[C@H](N)C(=O)N[C@@H](Cc1c[nH]c2ccccc12)C(=O)NCCN(CCNC(=O)[C@H](Cc1c[nH]c2ccccc12)NC(=O)[C@@H](N)CCCCN)CCNC(=O)[C@H](Cc1c[nH]c2ccccc12)NC(=O)[C@@H](N)CCCCN [TAEA-(WK)3, TAEA-(WK—NH2)3]	5423	789	4.12 ± 0.58	1316					6.87 ± 0.01
N=C(N)NCCC[C@H](N)C(=O)N[C@@H](Cc1c[nH]c2ccccc12)C(=O)NCCN(CCNC(=O)[C@H](Cc1c[nH]c2ccccc12)NC(=O)[C@@H](N)CCCNC(=N)N)CCNC(=O)[C@H](Cc1c[nH]c2ccccc12)NC(=O)[C@@H](N)CCCNC(=N)N [TAEA-(WR)3, TAEA-(WR—NH2)3]	3073		0.97 ± 0.02						2.07 ± 0.22
